Where a name gives a salt, the structure may show the parent alone.
Tests used:
HiBit-BRG1 = biological target: T1, HiBit-BRG1 (Homo sapiens, UniProt P51532); assay: HiBit-BRG1 cell-based degradation assay (Nano-Glo HiBiT Lytic Detection); conditions: HeLa cells expressing HiBit-BRG1 and LgBit, 24 h; for DC50: read-out: BRG1 HiBit Degradation IC50; for Dmax: read-out: BRG1 HiBit Degradation Maximum (%)
T1 construct: expressed in transfected cells
Method in brief: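 Stable HeLa line co-expressing HiBit-BRG1 and LgBit, 5000 cells/well, treated 24 h in a tissue culture incubator. Lysed with Nano-Glo HiBiT lytic reagent, luminescence read. % degradation normalized to DMSO (high control) and 2 μM reference BRM/BRG1 degrader (low control).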

HiBiT-BRM = biological target: T2, HiBiT-BRM (Homo sapiens, UniProt P51531); assay: HiBiT-BRM cell-based degradation assay (Nano-Glo HiBiT Lytic Detection); conditions: HeLa cells expressing HiBiT-BRM, 24 h; for DC50: read-out: BRM HiBit Degradation IC50
T2 construct: expressed in transfected cells
Method in brief: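 HeLa cells stably expressing HiBiT-tagged BRM were treated for 24 h, then lysed with LgBiT-containing Nano-Glo reagent and luminescence read. % degradation scaled between DMSO (high control) and 2 μM reference BRM/BRG1 degrader (low control).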

T1 sequence (P51532 whole entry): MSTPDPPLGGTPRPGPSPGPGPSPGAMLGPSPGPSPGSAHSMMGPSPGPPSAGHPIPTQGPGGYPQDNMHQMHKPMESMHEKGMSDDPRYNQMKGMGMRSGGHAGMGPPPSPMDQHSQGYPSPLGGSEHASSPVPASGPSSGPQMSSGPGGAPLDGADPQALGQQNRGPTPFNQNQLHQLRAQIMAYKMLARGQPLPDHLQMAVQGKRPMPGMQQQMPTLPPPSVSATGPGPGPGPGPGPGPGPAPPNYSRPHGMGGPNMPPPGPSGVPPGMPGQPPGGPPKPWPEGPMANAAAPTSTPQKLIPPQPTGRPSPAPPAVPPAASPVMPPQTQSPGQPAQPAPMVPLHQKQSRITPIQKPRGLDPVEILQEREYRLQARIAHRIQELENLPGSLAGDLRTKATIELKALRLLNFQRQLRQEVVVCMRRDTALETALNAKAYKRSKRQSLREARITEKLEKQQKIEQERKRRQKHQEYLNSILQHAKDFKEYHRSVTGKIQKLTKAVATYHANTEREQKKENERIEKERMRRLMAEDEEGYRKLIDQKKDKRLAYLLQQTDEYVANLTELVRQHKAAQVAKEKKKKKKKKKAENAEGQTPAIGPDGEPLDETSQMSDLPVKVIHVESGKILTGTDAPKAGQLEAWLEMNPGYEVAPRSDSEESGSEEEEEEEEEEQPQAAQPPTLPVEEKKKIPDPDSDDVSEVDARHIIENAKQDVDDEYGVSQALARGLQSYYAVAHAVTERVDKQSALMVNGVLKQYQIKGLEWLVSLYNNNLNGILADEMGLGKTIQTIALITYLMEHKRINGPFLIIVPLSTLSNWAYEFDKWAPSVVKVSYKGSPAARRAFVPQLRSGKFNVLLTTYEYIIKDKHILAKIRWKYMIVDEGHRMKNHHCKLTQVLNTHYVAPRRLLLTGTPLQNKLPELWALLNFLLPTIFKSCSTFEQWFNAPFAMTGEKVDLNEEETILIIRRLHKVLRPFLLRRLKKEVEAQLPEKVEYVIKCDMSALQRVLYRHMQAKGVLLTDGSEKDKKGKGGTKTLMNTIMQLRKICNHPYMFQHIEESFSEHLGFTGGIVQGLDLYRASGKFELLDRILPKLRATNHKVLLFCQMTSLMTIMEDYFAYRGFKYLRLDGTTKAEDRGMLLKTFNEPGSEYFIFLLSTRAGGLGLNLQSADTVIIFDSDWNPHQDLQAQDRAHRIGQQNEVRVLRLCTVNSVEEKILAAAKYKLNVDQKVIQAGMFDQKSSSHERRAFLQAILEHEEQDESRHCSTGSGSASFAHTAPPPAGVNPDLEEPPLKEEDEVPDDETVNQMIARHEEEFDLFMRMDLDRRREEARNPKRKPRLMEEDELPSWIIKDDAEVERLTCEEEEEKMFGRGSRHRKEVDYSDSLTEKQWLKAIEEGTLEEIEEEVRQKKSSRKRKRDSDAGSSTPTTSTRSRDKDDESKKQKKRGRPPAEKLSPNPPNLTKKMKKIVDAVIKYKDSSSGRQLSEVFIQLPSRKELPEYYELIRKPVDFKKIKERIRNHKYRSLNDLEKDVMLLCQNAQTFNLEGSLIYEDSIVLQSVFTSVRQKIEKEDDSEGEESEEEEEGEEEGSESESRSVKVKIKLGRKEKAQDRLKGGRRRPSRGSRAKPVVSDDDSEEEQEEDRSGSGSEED
T2 sequence (P51531 whole entry): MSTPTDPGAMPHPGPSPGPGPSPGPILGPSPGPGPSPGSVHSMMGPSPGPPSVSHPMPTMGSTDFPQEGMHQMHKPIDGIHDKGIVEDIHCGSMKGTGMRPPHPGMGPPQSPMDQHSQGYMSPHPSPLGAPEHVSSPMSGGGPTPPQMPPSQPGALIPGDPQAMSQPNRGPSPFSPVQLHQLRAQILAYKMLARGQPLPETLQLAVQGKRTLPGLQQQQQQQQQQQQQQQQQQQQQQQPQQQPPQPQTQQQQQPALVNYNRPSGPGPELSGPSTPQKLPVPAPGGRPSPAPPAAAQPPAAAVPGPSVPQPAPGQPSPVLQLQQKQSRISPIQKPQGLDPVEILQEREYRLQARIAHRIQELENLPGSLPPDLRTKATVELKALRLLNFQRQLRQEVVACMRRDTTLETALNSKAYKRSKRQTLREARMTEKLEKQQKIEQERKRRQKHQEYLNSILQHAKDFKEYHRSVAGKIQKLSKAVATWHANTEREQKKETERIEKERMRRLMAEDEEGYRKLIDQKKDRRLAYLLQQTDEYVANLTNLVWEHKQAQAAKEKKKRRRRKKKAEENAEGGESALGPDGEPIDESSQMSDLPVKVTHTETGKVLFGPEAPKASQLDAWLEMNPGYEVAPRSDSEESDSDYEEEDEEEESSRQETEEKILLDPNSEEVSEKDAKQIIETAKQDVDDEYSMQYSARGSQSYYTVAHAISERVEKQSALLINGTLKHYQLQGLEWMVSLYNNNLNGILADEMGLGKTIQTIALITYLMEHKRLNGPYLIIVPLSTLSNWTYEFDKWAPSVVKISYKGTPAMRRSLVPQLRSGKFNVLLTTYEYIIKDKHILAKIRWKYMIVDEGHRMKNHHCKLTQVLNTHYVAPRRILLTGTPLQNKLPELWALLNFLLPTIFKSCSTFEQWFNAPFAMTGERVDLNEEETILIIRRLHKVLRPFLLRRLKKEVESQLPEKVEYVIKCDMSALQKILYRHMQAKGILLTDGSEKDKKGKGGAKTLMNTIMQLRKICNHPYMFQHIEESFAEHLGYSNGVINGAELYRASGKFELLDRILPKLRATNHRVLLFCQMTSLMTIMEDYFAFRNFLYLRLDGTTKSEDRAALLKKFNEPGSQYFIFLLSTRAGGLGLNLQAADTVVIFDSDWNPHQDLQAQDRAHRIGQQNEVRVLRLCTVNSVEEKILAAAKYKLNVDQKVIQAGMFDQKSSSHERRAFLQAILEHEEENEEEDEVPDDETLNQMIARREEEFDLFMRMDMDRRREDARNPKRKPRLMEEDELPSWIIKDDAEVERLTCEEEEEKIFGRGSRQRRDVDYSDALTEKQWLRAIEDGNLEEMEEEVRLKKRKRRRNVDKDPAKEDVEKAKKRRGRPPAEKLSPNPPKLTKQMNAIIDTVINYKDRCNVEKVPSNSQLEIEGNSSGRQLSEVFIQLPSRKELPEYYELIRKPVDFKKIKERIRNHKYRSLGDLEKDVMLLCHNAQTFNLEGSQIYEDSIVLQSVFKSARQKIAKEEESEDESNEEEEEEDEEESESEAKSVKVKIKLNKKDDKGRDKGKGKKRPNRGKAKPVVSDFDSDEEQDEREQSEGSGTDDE

Compound | DC50 (HiBit-BRG1) [nM] | Dmax (HiBit-BRG1) [%] | DC50 (HiBiT-BRM) [nM] | BRM HiBit Degradation Maximum (%) (HiBiT-BRM)
Nc1nnc(-c2ccccc2O)cc1OCCc1ccc(CNCCCCOc2cccc3c2C(=O)N(C2CCC(=O)NC2=O)C3=O)cc1 (stereo not drawn) [Compound 121, 4-(4-((4-(2-((3-amino-6-(2-hydroxyphenyl)pyridazin-4-yl)oxy)ethyl)benzyl)amino)butoxy)-2-(2,6-dioxopiperidin-3-yl)isoindoline-1,3-dione] | > 1000 | < 50 | > 1000 | C (“C” indicates maximum degradation <50%)
Nc1nnc(-c2ccccc2O)cc1OCCc1ccc(CNCCCC2CN(c3ccc4c(c3)C(=O)N(C3CCC(=O)NC3=O)C4=O)C2)cc1 (stereo not drawn) [Compound 123, 5-[3-[3-([[4-(2-[[3-amino-6-(2-hydroxyphenyl)pyridazin-4-yl]oxy]ethyl)phenyl]methyl]amino)propyl]azetidin-1-yl]-2-(2,6-dioxopiperidin-3-yl)isoindole-1,3-dione] | > 1000 | < 50 | > 10 | B (“B” indicates maximum degradation ≥50%)
Nc1nnc(-c2cccc(Cl)c2O)cc1OCCc1ccc(CNCCCCCOc2cccc3c2C(=O)N(C2CCC(=O)NC2=O)C3=O)cc1 (stereo not drawn) [Compound 124, 4-((5-((4-(2-((3-amino-6-(3-chloro-2-hydroxyphenyl)pyridazin-4-yl)oxy)ethyl)benzyl)amino)pentyl)oxy)-2-(2,6-dioxopiperidin-3-yl)isoindoline-1,3-dione] | > 1000 | < 50 | > 1000 | C (“C” indicates maximum degradation <50%)
Nc1nnc(-c2ccccc2O)cc1OCCc1ccc(CNC(=O)CCCCNc2ccc3nnn(C4CCC(=O)NC4=O)c(=O)c3c2)cc1 (stereo not drawn) [Compound 125, N-(4-(2-((3-amino-6-(2-hydroxyphenyl)pyridazin-4-yl)oxy)ethyl)benzyl)-5-((3-(2,6-dioxopiperidin-3-yl)-4-oxo-3,4-dihydrobenzo[d][1,2,3]triazin-6-yl)amino)pentanamide] | > 1000 | > 50 | > 1000 | C (“C” indicates maximum degradation <50%)
Nc1nnc(-c2ccccc2O)cc1OCCc1ccc(CN2CCN(CCOc3cccc4c3C(=O)N(C3CCC(=O)NC3=O)C4=O)CC2)cc1 (stereo not drawn) [Compound 126, 4-[2-(4-[[4-(2-[[3-amino-6-(2-hydroxyphenyl)pyridazin-4-yl]oxy]ethyl)phenyl]methyl]piperazin-1-yl)ethoxy]-2-(2,6-dioxopiperidin-3-yl)isoindole-1,3-dione] | > 1000 | < 50 | > 1000 | C (“C” indicates maximum degradation <50%)
Nc1nnc(-c2ccccc2O)cc1OCCc1ccc(CN2CC(CCCOc3cccc4c3C(=O)N(C3CCC(=O)NC3=O)C4=O)C2)cc1 (stereo not drawn) [Compound 127, 4-[3-(1-[[4-(2-[[3-amino-6-(2-hydroxyphenyl)pyridazin-4-yl]oxy]ethyl)phenyl]methyl]azetidin-3-yl)propoxy]-2-(2,6-dioxopiperidin-3-yl)isoindole-1,3-dione] | > 1000 | < 50 | > 1000 | C (“C” indicates maximum degradation <50%)
Nc1nnc(-c2ccccc2O)cc1OCCc1ccc(CNC(=O)CCCCOc2ccc3c(c2)C(=O)N(C2CCC(=O)NC2=O)C3)cc1 (stereo not drawn) [Compound 128, N-(4-(2-((3-amino-6-(2-hydroxyphenyl)pyridazin-4-yl)oxy)ethyl)benzyl)-5-((2-(2,6-dioxopiperidin-3-yl)-3-oxoisoindolin-5-yl)oxy)pentanamide] | > 1000 |  | > 1000 | C (“C” indicates maximum degradation <50%)
Nc1nnc(-c2ccccc2O)cc1OCCc1ccc(CNC(=O)CCCCOc2ccc3c(c2)CN(C2CCC(=O)NC2=O)C3=O)cc1 (stereo not drawn) [Compound 129, N-(4-(2-((3-amino-6-(2-hydroxyphenyl)pyridazin-4-yl)oxy)ethyl)benzyl)-5-((2-(2,6-dioxopiperidin-3-yl)-1-oxoisoindolin-5-yl)oxy)pentanamide] | > 1000 |  | > 1000 | C (“C” indicates maximum degradation <50%)
Nc1nnc(-c2ccccc2O)cc1OCCc1ccc(CNC(=O)CCCCOc2cccc3c2CN(C2CCC(=O)NC2=O)C3=O)cc1 (stereo not drawn) [Compound 130, N-(4-(2-((3-amino-6-(2-hydroxyphenyl)pyridazin-4-yl)oxy)ethyl)benzyl)-5-((2-(2,6-dioxopiperidin-3-yl)-1-oxoisoindolin-4-yl)oxy)pentanamide] | > 1000 | < 50 | > 1000 | C (“C” indicates maximum degradation <50%)

The next lines start with results.

DC50 (HiBit-BRG1) [nM] | Dmax (HiBit-BRG1) [%] | DC50 (HiBiT-BRM) [nM] | Compound | BRM HiBit Degradation Maximum (%) (HiBiT-BRM)
> 1000 | > 75 | > 1000 | Nc1nnc(-c2ccccc2O)cc1OCCc1ccc(CNCCCCCNc2ccc3c(c2)C(=O)N(C2CCC(=O)NC2=O)C3=O)cc1 (stereo not drawn) [Compound 117, 5-[[5-([[4-(2-[[3-amino-6-(2-hydroxyphenyl)pyridazin-4-yl]oxy]ethyl)phenyl]methyl]amino)pentyl]amino]-2-(2,6-dioxopiperidin-3-yl)isoindole-1,3-dione] | B (“B” indicates maximum degradation ≥50%)
> 1000 | < 50 | > 100 | Nc1nnc(-c2cc(F)ccc2O)cc1OCCc1ccc(CNCCCCCOc2cccc3c2C(=O)N(C2CCC(=O)NC2=O)C3=O)cc1 (stereo not drawn) [Compound 118, 4-[[5-([[4-(2-[[3-amino-6-(5-fluoro-2-hydroxyphenyl)pyridazin-4-yl]oxy]ethyl)phenyl]methyl]amino)pentyl]oxy]-2-(2,6-dioxopiperidin-3-yl)isoindole-1,3-dione;formic acid salt] | B (“B” indicates maximum degradation ≥50%)
> 1000 | > 50 | > 1000 | Nc1nnc(-c2cc(F)cc(Cl)c2O)cc1OCCc1ccc(CNCCCCCOc2cccc3c2C(=O)N(C2CCC(=O)NC2=O)C3=O)cc1 (stereo not drawn) [Compound 119, 4-((5-((4-(2-((3-amino-6-(3-chloro-5-fluoro-2-hydroxyphenyl)pyridazin-4-yl)oxy)ethyl)benzyl)amino)pentyl)oxy)-2-(2,6-dioxopiperidin-3-yl)isoindoline-1,3-dione; formic acid salt] | C (“C” indicates maximum degradation <50%)
> 1000 | > 50 | > 100 | Nc1nnc(-c2ccccc2O)cc1OCCc1ccc(CNCCCCCNc2cccc3nnn(C4CCC(=O)NC4=O)c(=O)c23)cc1 (stereo not drawn) [Compound 120, 3-(5-[[5-([[4-(2-[[3-amino-6-(2-hydroxyphenyl)pyridazin-4-yl]oxy]ethyl)phenyl]methyl]amino)pentyl]amino]-4-oxo-1,2,3-benzotriazin-3-yl)piperidine-2,6-dione] | B (“B” indicates maximum degradation ≥50%)
> 1000 | > 50 | > 100 | Nc1nnc(-c2ccccc2O)cc1OCCc1ccc(CNCCCOc2cccc3c2C(=O)N(C2CCC(=O)NC2=O)C3=O)cc1 (stereo not drawn) [Compound 122, 4-[3-([[4-(2-[[3-amino-6-(2-hydroxyphenyl)pyridazin-4-yl]oxy]ethyl)phenyl]methyl]amino)propoxy]-2-(2,6-dioxopiperidin-3-yl)isoindole-1,3-dione] | B (“B” indicates maximum degradation ≥50%)

From patent US20230150974A1 (Foghorn Therapeutics Inc., priority 2020, published 2023)
